Assay: Phase II study in metastatic TNBC: toxicity / adverse events
Format: in vivo, human
Experimental: Experimental design: In this single-arm, two-stage phase 2 study, patients with metastatic TNBC with measurable disease by RECIST and up to 3 lines of prior chemotherapy for metastatic disease received cabozantinib 60 mg daily on a 21-day cycle. Patients were restaged 6 weeks following treatment initiation and every 9 weeks thereafter. The primary endpoint was objective response rate (ORR). Predefined secondary endpoints included progression free survival (PFS) and toxicity. Here, we examined cellular biomarkers using flow cytometry in serial blood samples collected at days 0 (baseline/pre-treatment), 8, 22, 43, and 64 of cabozantinib treatment. Mixed effect models were used to evaluate the changes of biomarker levels over time from baseline to day 64. Wilcoxon signed rank test were used to evaluate whether the change of biomarker levels from baseline to day 8 were different by clinical benefit. Adjusted p-values controlling false discovery rate were used to adjust for multiple comparisons.
Study Design and Treatment: As indicated, this was a single-arm, two-stage phase II study assessing the efficacy of cabozantinib monotherapy in patients with mTNBC. Treatment consisted of oral dosing of cabozantinib at 60 mg daily over a 21-day cycle. Patients underwent radiographic restaging at 6 weeks and every 9 weeks thereafter. Patients with complete or partial RECIST responses continued to receive study treatment, whereas those with progressive disease were taken off study. Dose reductions for toxicity occurred if patients experienced grade 3 or 4 neutropenia or thrombocytopenia, or nonhematologic adverse events. From the starting dose of 60 mg daily, doses were reduced as needed to 40 and 20 mg daily. For the purposes of determining the effect of cabozantinib treatment on pain and analgesic medication use, pain was assessed by a participant-reported questionnaire, and daily analgesic medication usage was recorded. These were completed at baseline and during week 3, 6, and every 6 weeks thereafter until the date of the participant's last follow-up visit.
The primary endpoint was the activity of cabozantinib, as defined by objective response rate (ORR) in patients with mTNBC. Predefined secondary endpoints included progression-free survival (PFS), toxicity, and pain. Correlative studies included analysis of MET and phospho-MET expression in archival tumor tissue, and molecular and cellular biomarkers of cabozantinib. Cellular biomarkers were examined using flow cytometry in serial blood samples collected at days 0 (baseline/pre-treatment), 8, 22, 43, and 64 of cabozantinib treatment. Mixed effect models were used to evaluate the changes of biomarker levels over time from baseline to day 64. Wilcoxon signed rank test were used to evaluate whether the change of biomarker levels from baseline to day 8 were different by clinical benefit. Adjusted p-values controlling false discovery rate were used to adjust for multiple comparisons.

COc1cc2nccc(Oc3ccc(NC(=O)C4(C(=O)Nc5ccc(F)cc5)CC4)cc3)c2cc1OC [cabozantinib]
number of grade 3 adverse events (35 patients): 15
Anorexia (Maximum grade Mild): 10
Bone pain (Maximum grade Mild): 0
Diarrhea (Maximum grade Mild): 8
Dysgeusia (Maximum grade Mild): 5
Elavated lipase (Maximum grade Mild): 0
Elevated alanine aminotransferase (Maximum grade Mild): 6
Elevated aspartate aminotransferase (Maximum grade Mild): 7
Fatigue (Maximum grade Mild): 18
Hypertension (Maximum grade Mild): 6
Hypophosphatemia (Maximum grade Mild): 0
Infection (Maximum grade Mild): 0
Nausea (Maximum grade Mild): 10
Oral mucositis (Maximum grade Mild): 11
PPE (Maximum grade Mild): 3
Prolonged activated partial thromboplastin time (Maximum grade Mild): 0
Thromboembolic event (Maximum grade Mild): 0
Wound dehiscence (Maximum grade Mild): 0
Anorexia (Maximum grade Moderate): 2
Bone pain (Maximum grade Moderate): 0
Diarrhea (Maximum grade Moderate): 6
Dysgeusia (Maximum grade Moderate): 2
Elavated lipase (Maximum grade Moderate): 0
Elevated alanine aminotransferase (Maximum grade Moderate): 0
Elevated aspartate aminotransferase (Maximum grade Moderate): 3
Fatigue (Maximum grade Moderate): 9
Hypertension (Maximum grade Moderate): 4
Hypophosphatemia (Maximum grade Moderate): 0
Infection (Maximum grade Moderate): 0
Nausea (Maximum grade Moderate): 0
Oral mucositis (Maximum grade Moderate): 2
PPE (Maximum grade Moderate): 9
Prolonged activated partial thromboplastin time (Maximum grade Moderate): 0
Thromboembolic event (Maximum grade Moderate): 0
Wound dehiscence (Maximum grade Moderate): 0
Anorexia (Maximum grade Severe): 0
Bone pain (Maximum grade Severe): 1
Diarrhea (Maximum grade Severe): 0
Dysgeusia (Maximum grade Severe): 0
Elavated lipase (Maximum grade Severe): 3
Elevated alanine aminotransferase (Maximum grade Severe): 1
Elevated aspartate aminotransferase (Maximum grade Severe): 2
Fatigue (Maximum grade Severe): 0
Hypertension (Maximum grade Severe): 2
Hypophosphatemia (Maximum grade Severe): 1
Infection (Maximum grade Severe): 1
Nausea (Maximum grade Severe): 0
Oral mucositis (Maximum grade Severe): 0
PPE (Maximum grade Severe): 1
Prolonged activated partial thromboplastin time (Maximum grade Severe): 1
Thromboembolic event (Maximum grade Severe): 1
Wound dehiscence (Maximum grade Severe): 1
Anorexia (all grades): 12 (34) Total (% of 35)
Bone pain (all grades): 1 (3) Total (% of 35)
Diarrhea (all grades): 14 (40) Total (% of 35)
Dysgeusia (all grades): 7 (20) Total (% of 35)
Elavated lipase (all grades): 3 (9) Total (% of 35)
Elevated alanine aminotransferase (all grades): 7 (20) Total (% of 35)
Elevated aspartate aminotransferase (all grades): 12 (34) Total (% of 35)
Fatigue (all grades): 27 (77) Total (% of 35)
Hypertension (all grades): 12 (34) Total (% of 35)
Hypophosphatemia (all grades): 1 (3) Total (% of 35)
Infection (all grades): 1 (3) Total (% of 35)
Nausea (all grades): 10 (29) Total (% of 35)
Oral mucositis (all grades): 13 (37) Total (% of 35)
PPE (all grades): 13 (37) Total (% of 35)
Prolonged activated partial thromboplastin time (all grades): 1 (3) Total (% of 35)
Thromboembolic event (all grades): 1 (3) Total (% of 35)
Wound dehiscence (all grades): 1 (3) Total (% of 35)
Diarrhea (all grades, possibly related): 40%
Fatigue (all grades, possibly related): 77%
Oral mucositis (all grades, possibly related): 37%
palmar-plantar erythrodysesthesia (PPE) (all grades, possibly related): 37%
patients requiring dose reduction (from 60 mg daily): 34%
dose reduction due to PPE (in vivo): 4 patients
dose reduction due to other toxicities (in vivo): 8 patients
grade 3 elevated aspartate aminotransferase (in vivo): 2 n
grade 3 elevated lipase (in vivo): 3 n
grade 3 hypertension (in vivo): 2 n
grade 4 toxicities (in vivo): no grade 4 toxicities
patients off treatment due to toxicity (in vivo): 9%
patients who omitted at least one dose due to toxicity (in vivo): 26 patients
tolerability (in vivo): well tolerated

Reference: patent publication US20240148714A1, “Triple Negative Breast Cancer Treatment Method” (Exelixis, Inc., priority 2016, published 2024)
